“Also recorded” adds a separate entry of the source.
Test system: ovariectomized female Wistar rats (osteoporosis caused by estrogen deficiency)
Assay: Ovariectomized female rat model of osteoporosis caused by estrogen deficiency
Assay type: in vivo
Conditions: two months; for bone volume of proximal tibia vs OVX group: FIG. 1; for apparent bone density of tibia vs OVX group: FIG. 2; for erosion surface (ES/BS) of proximal tibia (bone resorption) vs OVX group: FIG. 3
Source text: The purpose of this example is to show the potency of bakuchiol in treating osteoporosis, wherein ovary of a female rat is removed to stimulate osteoporosis caused by estrogen deficiency.
The female Wistar rats of 16 weeks old (unless specified in the other experiment description) were obtained from the stock reared by the Animal breeding center, National Scientific Council in Taipei. These rats were grouped by weights matched in order to distribute the physiological response variation from rats evenly into each group. These rats were grouping as follows: • Baseline group fed with no drug added food (n=8) • Sham operation group fed with no drug added food (Sham) (n=10) • Ovariectomy operation group fed with no drug added food (OVX) (n=8) • Ovariectomy operation group fed with Drug A (5 mg/kg) added food (OVX+A) (n=9) • Ovariectomy operation group fed with Drug B (15 mg/kg) added food (OVX+B) (n=9)
Ovariectomy (removal of ovaries) operation: Ovariectomy was induced using a protocol similar to that described by Wronski et al (Wronski et al, Endocrinology, 123 (2), 681-686 ([…]))
During the experiments, the rats were housed in hanging grid cages in groups of two at 21° C. with a 12 hours dark cycle. Food (Rat-mouse diet III, adequate in 1% of calcium content and 1.2% of phosphate content, Purina, USA) was administered by paired feeding between the experimental and control groups. Pair-feeding was carried out by calculating the average amount of food intake in the Sham group. So give the same amount of food to the OVX, OVX+A (5 mg/kg), OVX+B (15 mg/kg) group animals the following day. These animals were fed with a period of two months except for the baseline group which were killed on the very day of doing ovariectomy or sham operation. Rats of OVX+A and OVX+B groups were fed with the usual food chuck but added certain amount of compound A and B in it respectively. Water was given ad libitum to all rats.
The test drug was weighted according to dose of 5 mg/kg and 15 mg/kg, and added into the usual food chuck powder and mixed with 10% starch paste. After fully mixed, these chuck powder were made into mass manually and dried by air flow oven. The food with added drug to rats was performed by single blind method.
These labeling and bone histomorphometry assessment were done based on standard procedure in bone research (Lin et al, Calcif. Tissue Int., 67, 373-377 (2000)). Specimen were prestained with Villanueva bone stain, then […] embedded in London resin. Undecalcified sections of 7 μm thick were cut using Jung-K microtome (Leica Ltd, USA) and treated with Villanueva stain for observation under light microscopy. Seven μm thick unstained sections were prepared for fluorescent microscopy and assessed with program Osteomeasure (3.0 version, Atlanta, USA). The bone volume (FIG. 1) and eroded surface parameters (FIG. 3) were obtained according to Lin et al. (Lin et al, Calcif. Tissue Int., 67, 373-377 (2000)). The experiment was performed under specific project licences from the Animal Center and IAACU, National Defense Medical Center, National Defense University, Taipei, Taiwan.
The whole tibia and femur were stripped off attached muscles and ligaments after sacrifice. An apparent bone density measurement was done based on Archimedes floating principle on an electronic balance set with densitometry frame (Danielsen et al., Calcif. Tissue Int., 52, 26-33 (1993)). The weight of bone measured in the air was marked as W-air. The weight of the same bone weighed in water will be marked as W-water. The apparent bone density was calculated as [W-air/(W-air minus W-water)](gm/cm^3) (FIG. 2, Bone apparent density of Tibia).

C=C[C@@](C)(/C=C/c1ccc(O)cc1)CCC=C(C)C [Bakuchiol, bakuchiol]
bone volume of proximal tibia vs OVX group (OVX+A, 5 mg/kg in food): increase in the bone volume
apparent bone density of tibia vs OVX group (OVX+A, 5 mg/kg in food): increase
erosion surface (ES/BS) of proximal tibia (bone resorption) vs OVX group (OVX+A, 5 mg/kg in food, 5 mg/kg): inhibiting the bone resorption; also recorded: inhibition of bone erosion (bone resorption)
bone volume of proximal tibia vs OVX group (OVX+B, 15 mg/kg in food): increase in the bone volume
apparent bone density of tibia vs OVX group (OVX+B, 15 mg/kg in food): increase
erosion surface (ES/BS) of proximal tibia (bone resorption) vs OVX group (OVX+B, 15 mg/kg in food): inhibition of bone erosion (bone resorption)
